Results as given in US20230373974A1, “MODULATORS OF CYSTIC FIBROSIS TRANSMEMBRANE CONDUCTANCE REGULATOR” (VERTEX PHARMACEUTICALS INCORPORATED, priority 2020, published 2023).

Tests used:
[1] = biological target: CFTR-mediated chloride transport in human intestinal epithelial enteroid cells (Homo sapiens, UniProt P13569); assay: Enteroid assay: membrane potential dye assay (Enteroid Assay A or B); format: cell-based; settings: for Ent. Max Activity (%): chloride transport as percentage of triple combination control (% Activity)
Protocol: Base medium (ADF+++) consisted of Advanced DMEM/Ham's F12, 2 mM Glutamax, 10 mM HEPES, […] penicillin/streptomycin.
Intestinal enteroid maintenance medium (IEMM) consisted of ADF+++, 1×B27 supplement, 1×N2 supplement, 1.25 mM N-acetyl cysteine, 10 mM Nicotinamide, 50 ng/mL hEGF, 10 nM Gastrin, 1 μg/mL hR-spondin-1, 100 ng/mL hNoggin, TGF-b type 1 inhibitor A-83-01, 100 μg/mL Primocin, 10 μM P38 MAPK inhibitor SB202190.
Bath 1 Buffer consisted of 1 mM MgCl2, 160 mM NaCl, 4.5 mM KCl, 10 mM HEPES, 10 mM Glucose, 2 mM CaCl2).
Chloride Free Buffer consisted of 1 mM Magnesium Gluconate, 2 mM Calcium Gluconate, 4.5 mM Potassium Gluconate, 160 mM Sodium Gluconate, 10 mM HEPES, 10 mM Glucose.
Bath1 Dye Solution consisted of Bath 1 Buffer, 0.04% Pluronic F127, 20 μM Methyl Oxonol, 30 μM CaCCinh-A01, 30 μM Chicago Sky Blue.
Chloride Free Dye Solution consisted of Chloride Free Buffer, 0.04% Pluronic F127, 20 μM Methyl Oxonol, 30 μM CaCCinh-A01, 30 μM Chicago Sky Blue.
Chloride Free Dye Stimulation Solution consisted of Chloride Free Dye Solution, 10 μM forskolin, 100 μM IBMX, and 300 nM Compound III.
Human intestinal epithelial enteroid cells were obtained from the Hubrecht Institute for Developmental Biology and Stem Cell Research, Utrecht, The Netherlands and expanded in T-Flasks as previously described (Dekkers J F, Wiegerinck C L, de Jonge H R, Bronsveld I, Janssens H M, de Winter-de Groot K M, Brandsma A M, de Jong N W M, Bijvelds M J C, Scholte B J, Nieuwenhuis E E S, van den Brink S, Clevers H, van der Ent C K, Middendorp S and M Beekman J M. A functional CFTR assay using primary cystic fibrosis intestinal organoids. Nat Med. 2013 July; 19(7):939-45).
3. Enteroid Cell Harvesting and Seeding […]
Enteroid cells were incubated with test compound in IEMM for 18-24 hours at 37° C., 95% humidity and 5% CO2. […] Chloride transport was initiated by addition of Chloride Free Dye Stimulation Solution and the fluorescence signal was read for 15 min. […] Chloride transport was then expressed as a percentage of the chloride transport following treatment with 3 μM (S)—N-((6-aminopyridin-2-yl)sulfonyl)-6-(3-fluoro-5-isobutoxyphenyl)-2-(2,2,4-trimethylpyrrolidin-1-yl)nicotinamide, 3 μM (R)-1-(2,2-difluorobenzo[d][1,3]dioxol-5-yl)-N-(1-(2,3-dihydroxypropyl)-6-fluoro-2-(1-hydroxy-2-methylpropan-2-yl)-1H-indol-5-yl)cyclopropanecarboxamide and 300 nM acute N-[2,4-bis(1,1-dimethylethyl)-5-hydroxyphenyl]-1,4-dihydro-4-oxoquinoline-3-carboxamide triple combination control (% Activity). […]
Enteroid cells were incubated with test compound in IEMM for 18-24 hours at 37° C., 95% humidity and 5% CO2. […] Chloride transport was initiated by addition of Chloride Free Dye Stimulation Solution and the fluorescence signal was read for 15 min. […]

CFTR = CFTR (Homo sapiens, UniProt P13569); assay: standard Ussing Chamber Assay for CFTR potentiator activity; format: cell-based
F508del in NIH 3T3 cells = biological target: T1, F508del in NIH 3T3 cells (Homo sapiens, UniProt P13569, DEL508-508); assay: 3T3 assay: membrane potential optical assay for F508del correction; format: cell-based, mouse; settings: F508del NIH 3T3 cells, incubated with compound 18-24 hours at 37° C., forskolin activation
T1 construct: expressed in transfected cells
Text: Membrane Potential Optical Methods for Assaying F508del Modulation Properties of Compounds The assay utilizes fluorescent voltage sensing dyes to measure changes in membrane potential using a fluorescent plate reader (e.g., FLIPR III, Molecular Devices, Inc.) as a readout for increase in functional F508del in NIH 3T3 cells. The driving force for the response is the creation of a chloride ion gradient in conjunction with channel activation by a single liquid addition step after the cells have previously been treated with compounds and subsequently loaded with a voltage sensing dye. 2. Identification of Corrector Compounds To identify correctors of F508del, a single-addition HTS assay format was developed. This HTS assay utilizes fluorescent voltage sensing dyes to measure changes in membrane potential on the FLIPR III as a measurement for increase in gating (conductance) of F508del in F508del NIH 3T3 cells. The F508del NIH 3T3 cell cultures were incubated with the corrector compounds at a range of concentrations for 18-24 hours at 37° C., and subsequently loaded with a redistribution dye. The driving force for the response is a Cl^− ion gradient in conjunction with channel activation with forskolin in a single liquid addition step using a fluorescent plate reader such as FLIPR III. […] Solutions […] Chloride-free bath solution: Chloride salts in Bath Solution #1 (above) are substituted with gluconate salts. 4. Cell Culture NIH3T3 mouse fibroblasts stably expressing F508del are used for optical measurements of membrane potential. The cells are maintained at 37° C. in 5% CO2 and 90% humidity in Dulbecco's modified Eagle's medium supplemented with 2 mM glutamine, 10% fetal bovine serum, 1×NEAA, b-ME, 1×pen/strep, and 25 mM HEPES in 175 cm^2 culture flasks. For all optical assays, the cells were seeded at ˜20,000/well in 384-well Matrigel-coated plates. For the correction assays, the cells are cultured at 37° C. with and without compounds for 16-24 hours.

CFTR-mediated chloride transport in human intestinal epithelial enteroid cells, sequence (P13569 whole entry): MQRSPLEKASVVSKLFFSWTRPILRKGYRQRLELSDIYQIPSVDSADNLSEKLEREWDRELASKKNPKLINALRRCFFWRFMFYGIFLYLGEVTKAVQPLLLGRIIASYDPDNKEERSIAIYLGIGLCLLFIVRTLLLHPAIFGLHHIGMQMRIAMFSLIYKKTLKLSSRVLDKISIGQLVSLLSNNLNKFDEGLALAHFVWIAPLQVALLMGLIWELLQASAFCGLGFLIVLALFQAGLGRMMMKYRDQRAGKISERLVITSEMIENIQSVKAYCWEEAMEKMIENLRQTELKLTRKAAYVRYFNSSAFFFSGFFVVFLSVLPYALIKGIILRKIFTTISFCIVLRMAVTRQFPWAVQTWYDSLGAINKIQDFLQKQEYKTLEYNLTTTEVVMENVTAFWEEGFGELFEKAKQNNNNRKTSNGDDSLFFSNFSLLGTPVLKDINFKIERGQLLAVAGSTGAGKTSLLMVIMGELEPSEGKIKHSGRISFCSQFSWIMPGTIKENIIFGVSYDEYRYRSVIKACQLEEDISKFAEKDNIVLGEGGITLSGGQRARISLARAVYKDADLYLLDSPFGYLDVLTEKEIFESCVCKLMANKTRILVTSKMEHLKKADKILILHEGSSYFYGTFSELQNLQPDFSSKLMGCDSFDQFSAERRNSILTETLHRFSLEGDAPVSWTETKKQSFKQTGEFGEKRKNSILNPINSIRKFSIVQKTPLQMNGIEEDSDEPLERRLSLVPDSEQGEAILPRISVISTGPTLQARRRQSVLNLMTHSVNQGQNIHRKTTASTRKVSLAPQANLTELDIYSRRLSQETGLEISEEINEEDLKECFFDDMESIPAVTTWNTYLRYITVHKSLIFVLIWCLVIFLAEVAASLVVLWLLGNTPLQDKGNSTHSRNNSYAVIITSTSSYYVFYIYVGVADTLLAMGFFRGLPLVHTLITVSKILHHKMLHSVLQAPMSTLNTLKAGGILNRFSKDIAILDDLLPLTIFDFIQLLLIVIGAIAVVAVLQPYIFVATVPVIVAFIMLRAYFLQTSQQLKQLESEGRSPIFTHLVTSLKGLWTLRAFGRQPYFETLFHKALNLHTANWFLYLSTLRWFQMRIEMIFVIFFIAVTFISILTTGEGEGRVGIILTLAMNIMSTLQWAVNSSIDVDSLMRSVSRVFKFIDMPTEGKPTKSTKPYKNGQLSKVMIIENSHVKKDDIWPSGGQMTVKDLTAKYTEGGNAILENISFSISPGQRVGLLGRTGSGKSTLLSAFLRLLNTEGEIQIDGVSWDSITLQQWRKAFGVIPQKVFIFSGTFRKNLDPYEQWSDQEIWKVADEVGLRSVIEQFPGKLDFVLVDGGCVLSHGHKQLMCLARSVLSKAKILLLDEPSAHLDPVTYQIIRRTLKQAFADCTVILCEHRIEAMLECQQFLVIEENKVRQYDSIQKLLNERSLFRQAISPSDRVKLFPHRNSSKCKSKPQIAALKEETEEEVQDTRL
T1 sequence (P13569 with tags, fused parts or gaps DEL508-508): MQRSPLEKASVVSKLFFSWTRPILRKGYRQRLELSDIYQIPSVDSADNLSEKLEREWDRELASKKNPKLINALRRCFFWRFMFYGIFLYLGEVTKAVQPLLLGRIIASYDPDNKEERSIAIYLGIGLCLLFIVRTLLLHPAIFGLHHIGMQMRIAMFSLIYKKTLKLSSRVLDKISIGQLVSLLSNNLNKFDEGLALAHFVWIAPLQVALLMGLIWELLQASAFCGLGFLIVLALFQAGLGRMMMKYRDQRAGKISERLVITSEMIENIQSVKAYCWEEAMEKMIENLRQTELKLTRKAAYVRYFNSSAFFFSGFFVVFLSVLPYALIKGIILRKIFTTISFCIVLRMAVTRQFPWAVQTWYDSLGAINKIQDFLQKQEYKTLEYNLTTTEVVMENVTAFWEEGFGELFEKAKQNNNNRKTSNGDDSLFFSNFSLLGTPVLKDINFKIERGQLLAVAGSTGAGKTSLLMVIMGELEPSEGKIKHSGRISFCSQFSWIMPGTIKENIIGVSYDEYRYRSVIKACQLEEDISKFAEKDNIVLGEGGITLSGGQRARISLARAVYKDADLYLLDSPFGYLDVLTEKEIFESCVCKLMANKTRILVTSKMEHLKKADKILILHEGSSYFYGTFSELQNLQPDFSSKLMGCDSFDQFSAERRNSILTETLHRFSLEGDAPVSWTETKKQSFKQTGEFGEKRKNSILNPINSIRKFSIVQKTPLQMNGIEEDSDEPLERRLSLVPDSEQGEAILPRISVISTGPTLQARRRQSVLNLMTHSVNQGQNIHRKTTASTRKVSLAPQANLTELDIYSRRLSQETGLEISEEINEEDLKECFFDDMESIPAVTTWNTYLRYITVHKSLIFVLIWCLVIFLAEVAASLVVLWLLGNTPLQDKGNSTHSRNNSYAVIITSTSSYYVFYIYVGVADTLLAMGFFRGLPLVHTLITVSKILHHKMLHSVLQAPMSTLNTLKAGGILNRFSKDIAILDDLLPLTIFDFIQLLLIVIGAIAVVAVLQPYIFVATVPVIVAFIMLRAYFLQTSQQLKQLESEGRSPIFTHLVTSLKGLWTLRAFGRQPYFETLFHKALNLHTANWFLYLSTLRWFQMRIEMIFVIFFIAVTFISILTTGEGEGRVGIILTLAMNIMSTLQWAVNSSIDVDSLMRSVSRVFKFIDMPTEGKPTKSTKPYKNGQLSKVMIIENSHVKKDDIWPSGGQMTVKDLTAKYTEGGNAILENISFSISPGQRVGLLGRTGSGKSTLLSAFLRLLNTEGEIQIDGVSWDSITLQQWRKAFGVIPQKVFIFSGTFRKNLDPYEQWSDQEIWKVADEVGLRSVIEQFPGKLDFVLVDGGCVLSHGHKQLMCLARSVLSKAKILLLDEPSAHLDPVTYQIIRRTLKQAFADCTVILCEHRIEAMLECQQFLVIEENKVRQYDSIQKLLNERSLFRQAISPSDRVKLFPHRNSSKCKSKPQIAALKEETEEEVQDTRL
CFTR, sequence (P13569 whole entry): as the sequence (P13569 whole entry) above

SMILES	Ent. Max Activity (%) [1]	EC50 ([1]; enteroid cells, 18-24 hours incubation, acute 10 μM forskolin and 300 nM ivacaftor, read-out: Ent. EC50)	CFTR modulating activity (CFTR potentiator activity) (CFTR)	EC50 (F508del in NIH 3T3 cells)
Cc1ccccc1-c1nc(NS(=O)(=O)c2cnn(C)c2)cc2oc3ccccc3c12 [Compound 79, 1-Methyl-N-[1-(o-tolyl)benzofuro[3,2-c]pyridin-3-yl]pyrazole-4-sulfonamide]	++ (++ is 30-60%)	3 to 30 µM		
C[C@@H]1CCCCC[C@](O)(C(F)(F)F)C2=NN=C(O2)c2nc(c(C(F)(F)F)cc2N)O1 [(6R,12R)-17-Amino-12-methyl-6,15-bis(trifluoromethyl)-13,19-dioxa-3,4,18-triazatricyclo[12.3.1.12,5]nonadeca-1(18),2,4,14,16-pentaen-6-ol]			confirmed	
Cc1cc(C)c(-n2nc(NS(=O)(=O)c3ccccc3)c3ccc(C(C)(C)C)nc32)c(C)c1 [Compound 33, N-[6-tert-butyl-1-(2,4,6-trimethylphenyl)pyrazolo[3,4-b]pyridin-3-yl]benzenesulfonamide]	+ (+ is <300%)			< 1 µM
Cc1ccccc1-c1cc2oc3ccccc3c2c(NS(=O)(=O)c2cnn(C)c2)n1 [Compound 80]	+ (+ is <300%)			
